Read-outs that look alike come from different tables or passages of the source. Marks after values point to notes of the source that are not given here. Each block holds one compound with its values, some of them ahead of it.
Assays:
[1] = tested on: Sprague-Dawley rats with closed head injury; assay: Closed Head Injury (CHI) model, moderate head injury, treatment 24 h after trauma; assay type: in vivo, rat; conditions: for effect on saturation of brain haemoglobin with oxygen HbSat (NIRS) / effect on the redox state of CytOx (NIRS) / effect on total brain haemoglobin concentration [HbTot] (NIRS): i.v. 0.5 mg/kg.min 10 min, then 0.1 mg/kg.min 45 min, 24 h after moderate head injury
Source text: The impact area was centered between bregma and lamda.
Near-infrared spectroscopy (NIRS) of the rat brain ‘in vivo’ allows to quantify non-invasively saturation of brain haemoglobin with oxygen (HbSat) and total brain haemoglobin concentration ([HbTot]). The latter is a measure for cerebral blood volume (CBV). Changes in the redox state of the mitochondrial enzyme cytochrome oxidase (CytOx), an indicator for tissue oxygenation, can also be monitored.
HbSat is not affected by compound 1 and the racemate (Comp. 1 and Comp. 2).
The effects of treatment with Compound 2 (i.v. infusion at a dose of 0.1 mg/kg.min during 30 min) at 24 h after moderate trauma were studied using different anesthetics (isoflurane, chloralhydrate, pentobarbital). When chloralhydrate (400 mg/kg i.p) is used as anesthetic, ICP decreases to 75% of initial value and MABP gradually increases to 110% of initial value (medians, n=6). […] Barbiturates also reduce the ICP and an important additional effect can be obtained with the compound.

[2] = tested on: non-traumatised rats; assay: ICP and blood pressure in non-traumatized rats; assay type: in vivo, rat; conditions: i.v. 0.5 mg/kg/min 10 minutes, then 0.1 mg/kg/min 50 min; anaesthetised
Experimental: For comparison, two commercially available H2-agonists (dimaprit and impromidine) were also tested by infusion into non-traumatized rats, using a dose of 0.5 mg/kg/min for 10 minutes for dimaprit and increasing doses up to 3.75 mg/kg/hour for impromidine.
Rats The effect of Compound 2, Compound 1 and Racemate (comp. 1 and comp. 2) on ICP, MABP and CPP was tested in anaesthetised non-traumatised rats. […] Conclusion

[3] = tested on: Sprague-Dawley rats with closed head injury; assay: Closed Head Injury (CHI) model, severe head injury; conditions: for CPP (%), average change over treatment period, median (95% C.I.) / ETCO2 (%), average change over treatment period, median (95% C.I.) / ICP (%), average change over treatment period, % change of initial value, median (95% C.I.) / MABP (%), average change over treatment period, median (95% C.I.) / Resp. rate(%), average change over treatment period, median (95% C.I.) / Heart rate(%), average change over treatment period, median (95% C.I.): 0.5 mg/kg/min 10 min, then 0.1 mg/kg/min 50 min, start 20 min after severe CHI, n = 10; for Effect on ICP: 0.5 mg/kg/min for 10 min, first 15 minutes, 6 rats
Source text: (§1) A clinically relevant rat model for traumatic brain injury was used to test the compounds according to the invention and the commercially available compounds. […] Trauma was induced in intubated, isoflurane anesthetized (1.5% isoflurane in a mixture of 30% O2 and 70% N2O) Sprague-Dawley rats (380-400 g) stereotaxically positioned on a table mounted on 4 springs. A 400 g steel cylinder, protected with a 9 mm diameter silicon disc, was dropped on the unprotected skull from a height of either 70 cm or 50 cm (respectively ‘severe’ and ‘moderate’ head injury). The impact area was centered between bregma and lamda. ICP was recorded using a Codman microsensor probe inserted in the parietal cortex. […] The severe head injury mode was used for the evaluation of pharmacological effects immediately after trauma (screening procedure). […] In pharmacological studies, animals with a pathological ICP between 12.5 and 35 mm Hg were included. The changes in ICP, mean arterial blood pressure (MABP) and cerebral perfusion pressure CPP (=MABP—CPP) were expressed as percentage of the initial value at onset of the treatment.
(§2) On a weekly base, 4 treated groups of 3 rats were compared with 3 saline treated animals. Since conventional statistical methods require a larger amount of animals, a sequential procedure was used. Sequential methods operate in different stages. At each stage, a group of animals was selected as homogeneous as possible. Animals were randomly allocated to either drugs or saline. […] Given the biological relevant level of activity that must be detected, the expected fraction of false positive and negative results was known and fixed. A sequential two-sample grouped rank test was used.
(§3) Treatment was started at 20 min after severe head injury and involved administering a dose of 0.5 mg/kg/min during 10 minutes, followed by 0.1 mg/kg/min during 50 min.
(§4) Ranitidine was infused for 6 min at a dose of 2 mg/kg/min in the rat CHI-model after inflicting severe head injury. Solvent (NaCl+H2T) was given at the same rate. In each group, 6 rats were treated. […] The percentage of reduction are calculated as % change of the ICP recorded at the onset of the treatment and at the end of the infusion.
(§5) A number of commercially available H1- and H2-antagonists was infused for 10 min at a dose of 0.5 mg/kg/min in the rat CHI-model after inflicting severe head injury. Solvent (NaCl+H2T) was given at the same rate. In each group, 6 rats were treated.

[4] = biological target: T1, human histamine H1-receptor (Homo sapiens, UniProt P35367); assay: Radioligand binding, histamine H1-receptor, competitive inhibition of [3H]Pyrilamine; conditions: CHO-cells transfected with the human histamine H1-receptor, read-out: H1-antagonist activity (pIC50) (converted)
T1 construct: expressed in transfected cells; host or cells: CHO cells
Experimental: Competitive inhibition of [^3H] […] Incubation was done during 150 min at 22° C.

[5] = biological target: T2, histamine H2-receptor (Cavia porcellus, UniProt P47747); assay: Radioligand binding, histamine H2-receptor, guinea pig striatum cells, [125I]APT; conditions: [125I]APT 0.1 nM, 150 min at 22° C., read-out: H2-antagonist activity (pIC50) (converted)
T2 construct: using guinea pig striatum cells and [^125I]APT as the radioligand; from tissue; host or cells: guinea pig striatum

[6] = tested on: rabbits with cortical cold lesion; assay: Cold lesion-induced rise of ICP in rabbits; assay type: in vivo, rabbit; conditions: 2 mg/kg/min for 10 min, one day after cryo-lesion
Experimental: Cryo-lesions were induced in adult rabbits to obtain a pathological ICP that is caused by tissue oedema. A 8 mm stainless steel rod was placed at predetermined coordinates on the exposed skull of deeply anaesthetised rabbits and cooled for 10 min with liquid nitrogen. One day later the animals were re-anaesthetised and ICP and blood pressure continuously recorded as described for the rat. After a stabilisation period of 15 min, Compound 1 was infused for 10 min at a dose of 2 mg/kg/min. Solvent (preclinical formulation containing 10% HP-β-CD, pH 4) was given for 10 min at a rate of 2 ml/min.

[7] = tested on: Sprague-Dawley rats with closed head injury; conditions: for effect on the lowering of the blood pressure: rat, in vivo
Source text: as §1, §2, §3, §4, §5

[8] = tested on: traumaticaly induced brain edema; conditions: prior treatment; cited from earlier work
[9] = i.v. 1 mg/kg/min during 10 min, repeated, start 20 min after severe head injury
[10] = i.v. 0.1 mg/kg.min 30 min, chloralhydrate 400 mg/kg i.p. anesthesia, n=6
[11] = i.v. 0.1 mg/kg.min 30 min, pentobarbital 60 mg/kg i.p. anesthesia, n=6
[12] = continuous infusion of 0.1 mg/kg.min

T1 sequence (P35367 whole entry): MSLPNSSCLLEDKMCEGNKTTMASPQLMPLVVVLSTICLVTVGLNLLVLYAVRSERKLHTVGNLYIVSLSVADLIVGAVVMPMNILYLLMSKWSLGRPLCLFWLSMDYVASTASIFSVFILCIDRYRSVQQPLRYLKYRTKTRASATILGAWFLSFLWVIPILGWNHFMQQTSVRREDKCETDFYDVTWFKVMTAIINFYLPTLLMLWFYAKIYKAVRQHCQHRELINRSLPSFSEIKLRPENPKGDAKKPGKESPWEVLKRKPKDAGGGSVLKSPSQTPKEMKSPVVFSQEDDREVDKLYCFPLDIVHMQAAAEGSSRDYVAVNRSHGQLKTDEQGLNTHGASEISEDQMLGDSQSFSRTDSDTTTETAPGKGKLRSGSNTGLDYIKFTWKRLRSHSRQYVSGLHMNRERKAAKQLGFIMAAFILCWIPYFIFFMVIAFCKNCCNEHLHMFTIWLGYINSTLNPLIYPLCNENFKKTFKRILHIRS
T2 sequence (P47747 whole entry): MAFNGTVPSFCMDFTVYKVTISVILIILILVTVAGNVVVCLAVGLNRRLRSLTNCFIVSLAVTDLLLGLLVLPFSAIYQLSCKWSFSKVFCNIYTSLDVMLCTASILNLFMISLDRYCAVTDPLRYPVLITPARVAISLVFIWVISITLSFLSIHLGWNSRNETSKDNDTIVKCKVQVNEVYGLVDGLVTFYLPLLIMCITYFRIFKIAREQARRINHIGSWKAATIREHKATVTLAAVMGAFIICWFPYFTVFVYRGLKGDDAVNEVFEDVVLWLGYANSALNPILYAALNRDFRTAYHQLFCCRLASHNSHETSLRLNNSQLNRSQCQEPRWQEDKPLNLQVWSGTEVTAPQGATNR

SMILES: Cc1nc2n(C)c3ccccc3n2c(=O)c1CCN1CCC(C2c3ccccc3CCn3c2nc2ccccc23)CC1Cc1ccccc1 (racemic) [Racemate (comp. 1 and comp. 2), pyrimido[1,2-a]benzimidazol-4(10H)-one, 3-[2-[4-(11 ,12-dihydro-6H-benzimidazo[2,1-b][3]benzazepin-6-yl)-2-(phenylmethyl)-1-piperidinyl]ethyl]-2,10-dimethyl (E)-2-butenedioate (2:3) hydrate (1:1)]
effect on saturation of brain haemoglobin with oxygen HbSat (NIRS) [1]: not affected | effect on the redox state of CytOx (NIRS) [1]: do not have an effect | effect on total brain haemoglobin concentration [HbTot] (NIRS) [1]: do not have a significant effect | effect on ICP, MABP and CPP in non-traumatised rats [2]: comparable with those obtained in the traumatized animals | CPP (%), average change over treatment period, median (95% C.I.) [3]: 7.5 (−2.4; 15.5) % | ETCO2 (%), average change over treatment period, median (95% C.I.) [3]: 2.4 (−7.8; 3.8) % | ICP (%), average change over treatment period, % change of initial value, median (95% C.I.) [3]: −19.1 (−24.9; −10.8)* % | MABP (%), average change over treatment period, median (95% C.I.) [3]: 0.6 (−5.1; 8.5) % | Resp. rate(%), average change over treatment period, median (95% C.I.) [3]: 9.6 (3.0; 14.8) %

IC50 [4]: 200 nM | IC50 [5]: 1000 nM
SMILES: Cc1nc2n(C)c3ccccc3n2c(=O)c1CCN1CCC(C2c3ccccc3CCn3c2nc2ccccc23)CC1Cc1ccccc1 (single isomer, unassigned) [Compound 1, pyrimido[1,2-a]benzimidazol-4(10H)-one, 3-[2-[4-(11 ,12-dihydro-6H-benzimidazo[2,1-b][3]benzazepin-6-yl)-2-(phenylmethyl)-1-piperidinyl]ethyl]-2,10-dimethyl (E)-2-butenedioate (2:3) hydrate (1:1)]
effect on saturation of brain haemoglobin with oxygen HbSat (NIRS) [1]: not affected | effect on the redox state of CytOx (NIRS) [1]: do not have an effect | effect on total brain haemoglobin concentration [HbTot] (NIRS) [1]: do not have a significant effect | effect on ICP, MABP and CPP in non-traumatised rats [2]: comparable with those obtained in the traumatized animals | ICP after termination of infusion [6]: significant ICP reduction | ICP during infusion [6]: no immediate decrease in ICP | blood pressure during infusion [6]: blood pressure drops | CPP (%), average change over treatment period, median (95% C.I.) [3]: −1.9 (−8.9; 0.4) % | ETCO2 (%), average change over treatment period, median (95% C.I.) [3]: 2.2 (−0.8; 8.4) % | Heart rate(%), average change over treatment period, median (95% C.I.) [3]: −4.1 (−11.4; 1.9) % | ICP (%), average change over treatment period, % change of initial value, median (95% C.I.) [3]: −15.4 (−22.6; −11.5)* % | MABP (%), average change over treatment period, median (95% C.I.) [3]: −3.6 (−11.9; −1.5) % | Resp. rate(%), average change over treatment period, median (95% C.I.) [3]: 5.3 (−3.3; 13.6) % | effect on ICP during 10 min infusion (dose response) ([3]; 0.125, 0.25, 0.5, 1 and 2 mg/kg/min for 10 min): sustained dose-dependent decrease of ICP | effect on ICP in the 10 min period following the infusion ([3]; 0.125-2 mg/kg/min for 10 min): highly significant dose-dependent effect on ICP remains present | dose yielding a statistically significant larger reduction in ICP than solvent ([3]; 10 min infusion): ≥ 1 mg/kg/min | effect of repeated infusion on ICP [3, 9]: rapid reduction of ICP | effect of repeated infusion on blood pressure [3, 9]: Blood pressure drops during Compound 1 treatment but is restored again after this episode

IC50 [4]: 794 nM
SMILES: Cc1nc2n(C)c3ccccc3n2c(=O)c1CCN1CCC(C2c3ccccc3CCn3c2nc2ccccc23)CC1Cc1ccccc1 (single isomer, unassigned) [Compound 2, pyrimido[1,2-a]benzimidazol-4(10H)-one, 3-[2-[4-(11 ,12-dihydro-6H-benzimidazo[2,1-b][3]benzazepin-6-yl)-2-(phenylmethyl)-1-piperidinyl]ethyl]-2,10-dimethyl (E)-2-butenedioate (2:3) hydrate (1:1)]
ICP, % of initial value (median) [1, 10]: 75 % of initial value | MABP, % of initial value (median) [1, 10]: 110 % of initial value | ICP, % of initial value (median) [1, 11]: 64 % of initial value | MABP, % of initial value at the end of the infusion (median) [1, 11]: 141 % of initial value | effect on saturation of brain haemoglobin with oxygen HbSat (NIRS) [1]: small but statistically significant reduction | effect on the redox state of CytOx (NIRS) [1]: do not have an effect | effect on total brain haemoglobin concentration [HbTot] (NIRS) [1]: do not have a significant effect | effect on ICP, MABP and CPP in non-traumatised rats [2]: comparable with those obtained in the traumatized animals | CPP (%), average change over treatment period, median (95% C.I.) [3]: 24.2 (0.9; 43.6)* % | ETCO2 (%), average change over treatment period, median (95% C.I.) [3]: −4.4 (−8.9; 2.3)* % | Heart rate(%), average change over treatment period, median (95% C.I.) [3]: −9.6 (−21.8; 0.7) % | ICP (%), average change over treatment period, % change of initial value, median (95% C.I.) [3]: −15.3 (−20.0; −9.5)* % | MABP (%), average change over treatment period, median (95% C.I.) [3]: 18.8 (−2.0; 31.0)* % | Resp. rate(%), average change over treatment period, median (95% C.I.) [3]: 6.6 (−1.3; 14.6) % | increases in MABP observed [3, 12]: ≤ 20% | maximal reduction of ICP versus infusion preceded by loading dose [3, 12]: comparable | time required to obtain maximal reduction of ICP (median) [3, 12]: 30 min | median MABP increase at the end of the infusion ([3]; continuous infusion of 0.1 mg/kg.min, n=6): 9%

SMILES: CN(C)CCC(c1ccc(Cl)cc1)c1ccccn1 (stereo not shown) [Chlorpheniramine, reference compound]
effect on the lowering of the blood pressure [7]: no or little effect | Effect on ICP ([3]; severe head injury): −

SMILES: CN/C(=N/CCSCc1nc[nH]c1C)NC#N [Cimetidine, cimetidine]
increased brain water content and elevated plasma and brain histamine levels [8]: prevented

SMILES: CN(C)CCOC(c1ccccc1)c1ccccc1 [Diphenhydramine, diphenhydramine, reference compound]
effect on the lowering of the blood pressure [7]: no or little effect | reduction in ICP ([3]; 1 mg/kg/min for 10 min, severe head injury, three rats): 34%

SMILES: OCCOCCN1CCN(C(c2ccccc2)c2ccc(Cl)cc2)CC1 (stereo not shown) [Hydroxyzine]
Effect on ICP ([7]; iv, 0.5 mg/kg, 0.25 h): −

SMILES: CC(CN1c2ccccc2Sc2ccccc21)N(C)C (stereo not shown) [Promethazine, reference compound]
effect on the lowering of the blood pressure [7]: no or little effect | Effect on ICP ([3]; severe head injury): −

SMILES: COc1ccc(CN(CCN(C)C)c2ccccn2)cc1 [Pyrilamine]
effect on the lowering of the blood pressure [7]: no or little effect | increased brain water content and elevated plasma and brain histamine levels [8]: failed to reduce the increased brain water content

IC50 [5]: 3160 nM
SMILES: CNC(=C[N+](=O)[O-])NCCSCc1ccc(CN(C)C)o1 [Ranitidine, ranitidine, reference compound]

SMILES: c1cc(CN2CCCCC2)cc(OCCCNc2nc3ccccc3s2)c1 [Zolantidine, reference compound]
effect on the lowering of the blood pressure [7]: no or little effect | Effect on ICP ([3]; severe head injury): −
